Source: PMC8786951, “Identification of an allatostatin C signaling system in mollusc Aplysia” (Scientific Reports, 2022)
Where “and” joins values, the source holds several entries; their conditions need not be identical. Identical values can stand only once. Like-named read-outs stand apart in the source and are kept apart here. Where a SMILES comes first, the peptide text is derived from it. Bridges are numbered along the chain shown (N, C = ends).

Tests used:
[1] = molecular target: T1, AstC-R (Aplysia californica, UniProt A0ABM0JJJ7); test: IP1 accumulation assay, CHO-K1 cells expressing putative receptor AstC-R; format: cell-based; conditions: for EC50: IP1 accumulation, CHO cells co-transfected with AstC-R and Gα16 plasmids, peptide 10^–12 M to 10^–4 M; for Screening: IP1 concentration on AstC-R at 10^–5 M vs 10^–10 M: CHO cells co-transfected with AstC-R and Gα16, 10^–10 M used as control, paired t-test, n = 6 (AstC' n = 5; AstCG-DP, SPTR n = 3); for IP1 response of AstC-R, preliminary experiments: CHO cells transfected with receptor plasmid only, without Gα16
T1 sequence (A0ABM0JJJ7 1-425): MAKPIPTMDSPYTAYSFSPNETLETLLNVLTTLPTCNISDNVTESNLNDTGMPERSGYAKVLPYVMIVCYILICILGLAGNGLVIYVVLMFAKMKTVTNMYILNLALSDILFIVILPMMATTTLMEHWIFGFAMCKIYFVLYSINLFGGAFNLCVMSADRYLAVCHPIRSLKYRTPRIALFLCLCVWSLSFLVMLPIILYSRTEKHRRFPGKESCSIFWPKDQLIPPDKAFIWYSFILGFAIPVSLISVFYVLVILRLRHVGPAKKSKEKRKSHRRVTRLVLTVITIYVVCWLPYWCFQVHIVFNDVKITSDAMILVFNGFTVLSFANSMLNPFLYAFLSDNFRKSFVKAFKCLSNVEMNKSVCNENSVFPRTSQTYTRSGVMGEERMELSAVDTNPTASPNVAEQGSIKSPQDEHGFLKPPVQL
Description: Because Gα16 is a promiscuous Gαq protein that will bind to most GPCRs[10],[53], this procedure would ensure an IP1 response when a potential ligand binds to its GPCR.
Inositol monophosphate 1 (IP1) accumulation assay measures concentration of IP1, that is hydrolyzed from the second messenger, […] (IP3), generated by Gαq pathway when a G-protein coupled receptor (GPCR) expressed in CHO-K1 cells is activated by an appropriate ligand. In order to express the Aplysia putative receptors transiently in CHO-K1, the cDNA was cloned into the mammalian expression vector pcDNA3.1( +). […] Transfection experiments were performed when the cells were grown to 70–90% confluence. In preliminary experiments, for each dish (60-mm diameter), 4 μg of the putative receptor plasmids [in pcDNA3.1( +)] were mixed with 400 μl of Opti-MEM (Gibco, 11058021), followed by the addition of 15 μl of Turbofect (Thermo Fisher Scientific, R0531). […] The CHO cells with the reagents added above were mixed gently, and incubated at room temperature for 15 min. The DNA/Turbofect mixture dropwise was then added to the dish, and the cells were incubated at 37 °C in 5% CO2 overnight. The next day, the cells were trypsinized and reseeded in opaque white 96-well half-area (Corning, 3688) or 384-well tissue culture-treated plates (Corning, 3570) at a density of 20,000 cells/well in F-12K and 10% FBS and incubated at 37 °C in 5% CO2 overnight. On the third day, the activation of the putative receptor was detected by monitoring IP1 accumulation using IP1 detection kit (Cisbio, 62IPAPEB) in Tecan Spark. Except for using 0.5 × reagent, all other procedures were performed in accordance with the IP1 detection kit manufacturer’s instructions. Peptides are synthesized by Sangon Biotech, Guoping Pharmaceutical or ChinaPeptides (Supplementary Fig. 4), and are aliquoted in 50 nmol EP tubes, stored at −20 °C until use.

[2] = tested on: Class-A_GPCR1; test: IP1 accumulation assay, CHO-K1 cells expressing putative receptor Class-A_GPCR1 (control); format: cell-based, Aplysia californica; conditions: CHO cells transfected with receptor plasmid only, without Gα16
Description: We cloned AstC-R and Class-A_GPCR1 into pcDNA3.1 plasmids, and expressed them in CHO cells. We then used the IP1 accumulation assay that detects IP1 generated in the Gαq pathway (see Methods) to determine whether our predicted Aplysia peptides (i.e., AstC or AstCG-DP) and other related peptides which we synthesized (see Fig. 7G) could activate the receptors. In preliminary experiments, we only transfected plasmids for a putative receptor in CHO cells. […] Thus, for all the experiments shown in Fig. 7, we co-transfected plasmids for the putative receptor and Gα16 plasmids in CHO cells. Because Gα16 is a promiscuous Gαq protein that will bind to most GPCRs[10],[53], this procedure would ensure an IP1 response when a potential ligand binds to its GPCR.
Inositol monophosphate 1 (IP1) accumulation assay measures concentration of IP1, that is hydrolyzed from the second messenger, […] (IP3), generated by Gαq pathway when a G-protein coupled receptor (GPCR) expressed in CHO-K1 cells is activated by an appropriate ligand. In order to express the Aplysia putative receptors transiently in CHO-K1, the cDNA was cloned into the mammalian expression vector pcDNA3.1( +). […] On the third day, the activation of the putative receptor was detected by monitoring IP1 accumulation using IP1 detection kit (Cisbio, 62IPAPEB) in Tecan Spark. […]

[3] = molecular target: Platynereis receptor; conditions: annelid Platynereis dumerilii allatostatin C on its putative receptor; cited from earlier work
Description: Growing databases of the Aplysia genome and transcriptome are becoming available, but relatively few studies have taken advantage of this information (see[53],[54]). […] Previous bioinformatic studies in several molluscs predicted the presence of an allatostatin C precursor (Fig. 3, e.g.,[57]) and of AstC with the ...

[4] = average EC50, n = 3, read-out: [EC50] on AstC-R
[5] = average log[EC50], n = 3, read-out: log[EC50] on AstC-R (converted)

Compound | EC50 [1, 4] [nM] | EC50 [1, 5] [nM] | Screening: IP1 concentration on AstC-R at 10^–5 M vs 10^–10 M [1] | further results
CC[C@H](C)[C@@H]1NC(=O)[C@H](CC(C)C)NC(=O)[C@H](CC(N)=O)NC(=O)[C@H](C(C)C)NC(=O)[C@H](CC(C)C)NC(=O)[C@@H](NC(=O)[C@H](CCSC)NC(=O)[C@@H](NC(=O)[C@H](Cc2c[nH]cn2)NC(=O)[C@@H](N)CO)C(C)C)CSSC[C@@H](C(=O)N[C@@H](Cc2ccccc2)C(=O)O)NC(=O)[C@H](CO)NC1=O [AstC-L] (H-SHVMCLVNLISCF-OH; disulfide 5-12) | 111 | 63.1 | – | –
AVIPVSSPEPMEEASALQLLPGKI-NH2 [AstCG-DP, AstC gene-derived peptide predicted from the Aplysia AstC precursor, C-terminally amidated] | – | – | did not activate AstC-R significantly | IP1 response of AstC-R, preliminary experiments [1]: none of the receptors responded; IP1 response of Class-A_GPCR1, preliminary experiments [2]: none of the receptors responded
MRYMG1CMKKQYNNF1PFPCLRS-NH2 (disulfide) [SPTR, another Aplysia peptide also with a disulfide bridge, reference compound] | – | – | did not activate AstC-R significantly | –
CSCC[C@H](NC(=O)[C@H](CO)NC(=O)[C@H](CC(N)=O)NC(=O)[C@H](Cc1ccc(O)cc1)NC(=O)[C@H](Cc1c[nH]cn1)NC(=O)[C@@H](N)CO)C(=O)N[C@H]1CSSC[C@@H](C(=O)N[C@@H](Cc2ccc(O)cc2)C(=O)O)NC(=O)[C@H](C)NC(=O)[C@H](C(C)C)NC(=O)[C@H](C(C)C)NC(=O)[C@H](CC(N)=O)NC(=O)[C@H](Cc2ccccc2)NC(=O)[C@H](CCSC)NC1=O [AstC-T] (H-SHYNSMCMFNVVACY-OH; disulfide 7-14) | 17.7 | – | – | –
CC[C@H](C)[C@H](NC(=O)[C@H](Cc1c[nH]cn1)NC(=O)[C@@H](N)CO)C(=O)N[C@@H](CCCNC(=N)N)C(=O)N[C@H]1CSSC[C@@H](C(=O)N[C@@H](Cc2ccc(O)cc2)C(=O)O)NC(=O)[C@H](C)NC(=O)[C@H]([C@@H](C)CC)NC(=O)[C@H](C(C)C)NC(=O)[C@H](CC(N)=O)NC(=O)[C@H](C(C)C)NC(=O)[C@H](CC(C)C)NC1=O [AstC-C] (H-SHIRCLVNVIACY-OH; disulfide 5-12) | 111 | – | – | –
pQPVQCLVNIVSCWamide (disulfide) [allatostatin C] | – | – | – | EC50 [3]: 1000 nM and 1200 nM
CSCC[C@H](NC(=O)[C@H](CO)NC(=O)[C@H](CO)NC(=O)[C@H](Cc1ccc(O)cc1)NC(=O)[C@@H](N)[C@@H](C)O)C(=O)N[C@H]1CSSC[C@@H](C(=O)N[C@@H](Cc2ccc(O)cc2)C(=O)O)NC(=O)[C@H](C)NC(=O)[C@H](C(C)C)NC(=O)[C@H](C(C)C)NC(=O)[C@H](CC(N)=O)NC(=O)[C@H](Cc2ccccc2)NC(=O)[C@H](CCSC)NC1=O [AstC-D] (H-TYSSMCMFNVVACY-OH; disulfide 6-13) | 18.9 | 15.8 | – | –
CSCC[C@H](NC(=O)[C@H](CO)NC(=O)[C@H](CO)NC(=O)[C@H](Cc1ccc(O)cc1)NC(=O)[C@H](Cc1c[nH]cn1)NC(=O)[C@@H](N)CO)C(=O)N[C@H]1CSSC[C@@H](C(=O)N[C@@H](Cc2ccc(O)cc2)C(=O)O)NC(=O)[C@H](C)NC(=O)[C@H](C(C)C)NC(=O)[C@H](C(C)C)NC(=O)[C@H](CC(N)=O)NC(=O)[C@H](Cc2ccccc2)NC(=O)[C@H](CCSC)NC1=O [AstC] (H-SHYSSMCMFNVVACY-OH; disulfide 7-14; N-terminus assumed) | 7.8 | 6.31 | significantly increased IP1 concentration | IP1 response of AstC-R, preliminary experiments [1]: none of the receptors responded; IP1 response of Class-A_GPCR1, preliminary experiments [2]: none of the receptors responded
